Results from the METLIN SMRT retention time set (Domingo-Almenara et al. 2019).

Assay: gradient 5% acetonitrile 3 min, to 50% in 2 min, to 85% in 15 min, held 3 min, 100 µL/min
Settings: column: Zorbax Extend-C18 2.1 x 50 mm; eluents: water / acetonitrile, 0.1% formic acid
In short: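 Pure standards were run in mixtures of ~100 molecules by HPLC coupled to a quadrupole time-of-flight mass spectrometer. The column was a Zorbax Extend-C18 (2.1 × 50 mm, 1.8 μm) at 100 μL/min, with water and acetonitrile each containing 0.1% formic acid, in positive and negative ionization mode. Dead and dwell volumes were 40 μL and 900 μL. Retention time was taken from computationally picked adduct peaks, each manually inspected, with data collected over 3 months.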
In the case of CCCOC(=O)c1ccc(Oc2c(C)oc3cc(OCC#N)ccc3c2=O)cc1, the RP-LC retention time is reported as 958 s.
For CCN1CCn2cc(S(=O)(=O)Nc3cccc(C)c3C)cc2C1=O, the RP-LC retention time was 729 s.
Work on O=C(Nc1ccccc1F)N1CCC(n2cnc3c(Cl)cccc3c2=O)CC1 yielded an RP-LC retention time of 828 s.
In the case of Cc1nccn1Cc1noc(-c2cccc(F)c2)n1, the RP-LC retention time is reported as 611 s.
CCOc1ccc(CNC(=O)C2CCCN(c3nnc(C)c4c(C)n(-c5ccc(C)cc5)nc34)C2)cc1 (stereo not given) gave an RP-LC retention time of 785 s.
In the case of Cc1cc(NC(=O)NCCn2nnc3cc(C(=O)N(C)C)ccc32)ccc1Br, the RP-LC retention time is reported as 707 s.
With COc1ccc(NS(=O)(=O)c2cn(C(C)C)c3ncccc23)cc1Cl the RP-LC retention time was 908 s.
Compound CC(C)n1cnnc1CC1CCN(C(=O)Nc2ccc3c(c2)OCCO3)CC1 has an RP-LC retention time of 625 s.
Work on Cn1nccc1C(=O)Nc1ccsc1-c1nc(-c2ccc(Cl)cc2)no1 yielded an RP-LC retention time of 1430 s.
In the case of CC(C)NC(=O)N(C1CCOCC1)C1CN(C(=O)c2ccnn2C)C1, the RP-LC retention time is reported as 576 s.
Cc1oc(C2CCN(C(=O)Nc3cccc(Cl)c3C)CC2)nc1C(=O)N(C)C gave an RP-LC retention time of 728 s.
With COc1ccc(CNC(=O)CN2C(=O)NC3(CCCCC3)C2=O)cc1OC the RP-LC retention time was 659 s.
Work on CC1(C)Cc2cccc(OCc3ccc(C(=O)NCCN4CCOCC4)cc3)c2O1 yielded an RP-LC retention time of 586 s.
Work on COC(=O)c1sccc1NC(=O)N1CCCC1c1nc(-c2ccccc2)no1 (stereo not given) yielded an RP-LC retention time of 1050 s.
For CCN1CCCn2cc(S(=O)(=O)Nc3ccc(C)cc3)cc2C1=O, the RP-LC retention time was 1130 s.
With Cc1ccc(-n2nc(C)c3c(C(F)(F)F)cc(OCC(=O)NCc4ccco4)nc32)cc1 the RP-LC retention time was 1220 s.
CC(C)NC(=O)c1ccc(-c2ccsc2)nc1 showed an RP-LC retention time of 736 s.
With CCC(=O)Nc1ccc(-n2cnc(C(=O)N3CC(C)CC(C)C3)c2)nc1 (stereo not given) the RP-LC retention time was 772 s.
With Cn1nc(CNC(=O)c2ccc(Br)o2)c2ccccc21 the RP-LC retention time was 795 s.
For Cc1ccc(-c2nc(CN(c3ccccc3)S(=O)(=O)c3cccs3)c(C)o2)cc1, the RP-LC retention time was 1200 s.
Compound CCC(C(=O)N1CCC(N2CCCCC2)CC1)n1nc(C)c2sc3ccccc3c2c1=O (stereo not given) has an RP-LC retention time of 676 s.
CN1C(=O)c2cccc(NC(=O)C3COc4ccccc4O3)c2C1=O (stereo not given) gave an RP-LC retention time of 913 s.
Compound NC(=O)C1CCN(C(=O)NC2CC(=O)N(c3ccc(Cl)cc3)C2)CC1 (stereo not given) has an RP-LC retention time of 587 s.
CCN1CCC(N(Cc2cccs2)C(=O)Nc2cc(OC)c(OC)c(OC)c2)CC1 gave an RP-LC retention time of 628 s.
Work on CN1CCn2ccnc2C12CCN(S(=O)(=O)c1ccccc1C(F)(F)F)CC2 yielded an RP-LC retention time of 654 s.
For Cc1oc(C2CCN(S(=O)(=O)c3ccccc3F)CC2)nc1C(=O)N1CCCC1, the RP-LC retention time was 886 s.
Compound COc1ccc(S(=O)(=O)Cc2nc(-c3cccc(Cl)c3)no2)cc1 has an RP-LC retention time of 1020 s.
For CCCN1C(=O)COc2ccc(-c3csc(NC(=O)CCC4CCCCC4)n3)cc21, the RP-LC retention time was 1270 s.
With CC(C)c1ccc(S(=O)(=O)c2cnc(N3CCC(C(N)=O)(N4CCCCC4)CC3)nc2N)cc1 the RP-LC retention time was 677 s.
Cc1cc(C)cc(S(=O)(=O)N2CCC(n3cnc4ccc(C)cc4c3=O)CC2)c1 gave an RP-LC retention time of 1010 s.
Work on COC(=O)c1c(C)[nH]c(C(=O)N2CCCC(C(=O)NCCN(C)C3CCCCC3)C2)c1C (stereo not given) yielded an RP-LC retention time of 626 s.
For CCOc1ccc(C(=O)NC(C)C(=O)Nc2nc3ccccc3[nH]2)cc1 (stereo not given), the RP-LC retention time was 640 s.
Cc1cc(C)n(Cc2nc(-c3ccc(NC(=O)c4sccc4C)cc3)oc2C)n1 gave an RP-LC retention time of 951 s.
With CCOC(=O)c1c(S(=O)(=O)N2CCC(C(=O)N3CCOCC3)CC2)c(C)n(C)c1C the RP-LC retention time was 674 s.
Work on Cn1nccc1-c1cccc(-c2noc(C3CC(=O)N(c4cccc(Cl)c4)C3)n2)c1 (stereo not given) yielded an RP-LC retention time of 978 s.
CCc1nnc2ccc(NC(=O)Nc3cccc(C)c3)cn12 gave an RP-LC retention time of 719 s.
In the case of CC(C)c1ccc(CNC(=O)c2nnc(-c3ccc(S(=O)(=O)N(C)C)cc3)o2)cc1, the RP-LC retention time is reported as 1010 s.
With Cc1cnc(C2CC2)n1C1CCN(C(=O)C2(c3ccccc3)CC2)CC1 the RP-LC retention time was 636 s.
Work on O=C(c1ccc(Cl)c(N2C(=O)CCS2(=O)=O)c1)N1CCN(c2ncccn2)CC1 yielded an RP-LC retention time of 641 s.
Cc1ccccc1CC(=O)Nc1ccc2c(c1)CCC(=O)N2CC(C)C gave an RP-LC retention time of 910 s.
In the case of COCc1c(C(=O)O)nnn1-c1cc(C)ccc1F, the RP-LC retention time is reported as 708 s.
Work on Cc1ccc(S(=O)(=O)N2C(=O)CCC2C(=O)NC2CCCCCC2)cc1C (stereo not given) yielded an RP-LC retention time of 1010 s.
Compound COc1cccc(NC(=O)Nc2ccc3nc4n(c(=O)c3c2)CCC4)c1 has an RP-LC retention time of 673 s.
Compound COC1CN(c2cccc(F)c2)C12CCN(C(=O)NC1CCCCC1)CC2 (stereo not given) has an RP-LC retention time of 1030 s.
Compound CN(CC1CCOC1)C(=O)Nc1ccc(Cl)cc1 (stereo not given) has an RP-LC retention time of 696 s.
CCOC(=O)c1ccc(NS(=O)(=O)c2cc3n(c2)CCN(C)C3=O)cc1 gave an RP-LC retention time of 702 s.
Compound O=C(Cc1cccn1-c1ccc(Cl)cc1)NCCCN1CCOCC1 has an RP-LC retention time of 625 s.
Work on CC1=C(c2ccccc2)S(=O)(=O)N=C1N1CCCN(C(=O)NCc2ccco2)CC1 yielded an RP-LC retention time of 767 s.
COc1ccccc1CNC(=O)c1ccc2c(c1)N(C)C(=O)c1ccccc1O2 gave an RP-LC retention time of 862 s.
With Cc1nn(C(C)C(=O)NCCC(C)C)c(=O)c2nn(-c3ccccc3)c(C)c12 (stereo not given) the RP-LC retention time was 622 s.
CCOc1ccc(-c2cn3ccn(-c4cccc(Cl)c4)c(=O)c3n2)cc1 gave an RP-LC retention time of 899 s.
Work on O=C(c1cc(=O)n2c(nc3ccccc32)s1)N1CCN(c2ccccn2)CC1 yielded an RP-LC retention time of 634 s.
Work on O=C(c1ccc(F)cc1F)N1CCC2(CC1)N=C(c1ccc(Cl)cc1)NO2 yielded an RP-LC retention time of 900 s.
With CCC1CN(C(=O)N2CCC(C(=O)NCCN3CCOCC3)CC2)c2cc(C)ccc2O1 (stereo not given) the RP-LC retention time was 632 s.
For Cc1cc2[nH]c(C(=O)Nc3ccc(Cl)cc3C)c(CN3CCOCC3)c2s1, the RP-LC retention time was 738 s.
With CCOc1ccc(NS(=O)(=O)c2cc(-c3nc(C(C)(C)C)cs3)cs2)cc1 the RP-LC retention time was 1240 s.
With O=C(NC1CCN(c2cc(-c3ccc(F)cc3)[nH]n2)C1)c1ccc(F)cc1F (stereo not given) the RP-LC retention time was 736 s.
For CCc1nc(-c2ccc(-c3noc(CNC(=O)c4ccco4)n3)cc2)cs1, the RP-LC retention time was 924 s.
In the case of O=C(Nc1cc(F)ccc1F)N1CCC(N2CCN(Cc3ccc(F)cc3)C2=O)CC1, the RP-LC retention time is reported as 850 s.
CCCCC(=O)Nc1nc(-c2ccc3c(c2)N(CC)C(=O)CO3)cs1 showed an RP-LC retention time of 932 s.
With CCOc1ccc(CC(=O)N2CCC3(CC2)C(=O)N(C)c2ccccc23)cc1OCC the RP-LC retention time was 830 s.
In the case of CCOCCCNC(=O)C1c2ccccc2C(=O)N(C)C1c1cccs1 (stereo not given), the RP-LC retention time is reported as 722 s.
O=C(Cn1cnc(-c2cccs2)cc1=O)NCc1ccccc1OC(F)(F)F showed an RP-LC retention time of 801 s.
With O=c1ccn(-c2ccc(Cl)cc2)nc1-c1nc(-c2ccccc2)no1 the RP-LC retention time was 938 s.
For Cn1ncn2cc(S(=O)(=O)N3CCN(c4ccccn4)CC3)cc2c1=O, the RP-LC retention time was 578 s.
CCOC(=O)c1nc(N2CCN(c3ccccc3F)CC2)c2c(C)noc2n1 gave an RP-LC retention time of 1010 s.
With O=C(NCc1ccc2c(c1)OCO2)c1cn2c(n1)COCC2 the RP-LC retention time was 616 s.
With CCN1C(=O)c2cccnc2Sc2cc(CNC(=O)c3c(OC)cccc3OC)ccc21 the RP-LC retention time was 784 s.
Compound O=S(=O)(Cc1ccccc1)N1CCC(c2noc(COCC3CC3)n2)CC1 has an RP-LC retention time of 941 s.
With CC1(C(=O)NC2CCCCCC2)CN(S(C)(=O)=O)CC(=O)N1c1cccc(Cl)c1 (stereo not given) the RP-LC retention time was 882 s.
For CCn1nccc1C(=O)NCCn1c(=O)n(Cc2cccc(C)c2)c2cccnc21, the RP-LC retention time was 784 s.
With COCc1nc2cccnc2n1C1CCN(C(=O)Nc2cc(C)ccc2C)CC1 the RP-LC retention time was 710 s.
Compound CS(=O)(=O)N(C1CCOCC1)C1CN(C(=O)CCc2c[nH]c3ccccc23)C1 has an RP-LC retention time of 678 s.
Compound O=S(=O)(Nc1cc(F)cc(F)c1)c1ccc(-c2nnc(C3CC3)o2)o1 has an RP-LC retention time of 878 s.
With COc1cccc(CNC(=O)C2CCN(S(=O)(=O)c3cn(C)cn3)CC2)c1 the RP-LC retention time was 656 s.
For CCCNC(=O)N1CCCN(C2=NS(=O)(=O)C(c3ccc(F)cc3)=C2C)CC1, the RP-LC retention time was 861 s.
For Cc1ccc(CNC(=O)C2CCCN(c3nnc4ccc(Cl)cn34)C2)o1 (stereo not given), the RP-LC retention time was 740 s.
With O=C(Cc1ccc(F)cc1)N(CC1CCOC1)C1CC1 (stereo not given) the RP-LC retention time was 794 s.
In the case of O=C(c1ccccc1Cl)N1CCN(c2cc(-c3cccs3)[nH]n2)CC1, the RP-LC retention time is reported as 789 s.
Cc1nc(CC(=O)Nc2ccc(F)c(F)c2)cs1 showed an RP-LC retention time of 754 s.
For Cc1ccc(C)c(N2CCN(C(=O)c3cn4ccccc4n3)CC2)c1, the RP-LC retention time was 771 s.
Work on O=C(Nc1cccc(Cl)c1)Nc1nccs1 yielded an RP-LC retention time of 870 s.
O=C(Cn1c(C2CC(=O)N(C3CCCCC3)C2)nc2ccccc21)N1CCOCC1 (stereo not given) showed an RP-LC retention time of 630 s.
With Cc1noc(C)c1-c1ccc(S(=O)(=O)Nc2ccc(S(N)(=O)=O)cc2)cc1 the RP-LC retention time was 756 s.
For O=C(c1noc2c1CCCC2)N1CCc2ccccc2C1, the RP-LC retention time was 923 s.
Compound CCOC(=O)O[C@]1(C(=O)OCCl)CCC2[C@@H]3CCC4=CC(=O)C=C[C@]4(C)C3[C@@H](O)C[C@@]21C (stereo not given in full) has an RP-LC retention time of 1110 s.
Work on O=C1CCN(C(=O)C2CCN(C(=O)CC3CCCC3)CC2)CCCCCCN1 yielded an RP-LC retention time of 686 s.
Work on CN(c1ncccc1CNc1nc(Nc2ccc3c(c2)CC(=O)N3)ncc1C(F)(F)F)S(C)(=O)=O yielded an RP-LC retention time of 678 s.
For CCCOc1nc2ccccc2nc1N1CCCC(C(=O)NCC2CCCO2)C1 (stereo not given), the RP-LC retention time was 1010 s.
In the case of CC(C)(C)N(CC(=O)N(Cc1ccco1)CC1CCCO1)C(=O)Cc1ccccc1 (stereo not given), the RP-LC retention time is reported as 907 s.
